Results reported in PubChem BioAssay (NCI).
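Cultured in 96-well plates, cells were exposed to test compound for 48 hours across five concentrations. GI50: concentration for 50% inhibition of growth. TGI is the concentration that stops growth completely.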

Key:
Test in all cases: growth of human tumour cells (NCI), 48 h
SK-MEL-2 melanoma = tested on: SK-MEL-2 melanoma
MOLT-4 leukemia = tested on: MOLT-4 leukemia
UACC-257 melanoma = tested on: UACC-257 melanoma
UO-31 renal = tested on: UO-31 renal
SNB-19 CNS = tested on: SNB-19 CNS
NCI-H23 lung = tested on: NCI-H23 lung
HOP-92 NSCLC = tested on: HOP-92 NSCLC
SW-620 colon = tested on: SW-620 colon
A549 NSCLC = tested on: A549 NSCLC
SF-539 CNS = tested on: SF-539 CNS

SMILES | TGI (SK-MEL-2 melanoma) [µM] | TGI (MOLT-4 leukemia) [µM] | TGI (UACC-257 melanoma) [µM] | TGI (UO-31 renal) [µM] | TGI (SNB-19 CNS) [µM] | TGI (NCI-H23 lung) [µM] | TGI (HOP-92 NSCLC) [µM] | TGI (SW-620 colon) [µM] | TGI (A549 NSCLC) [µM] | TGI (SF-539 CNS) [µM] | GI50 (SK-MEL-2 melanoma) [nM] | GI50 (A549 NSCLC) [nM] | GI50 (SF-539 CNS) [nM] | GI50 (MOLT-4 leukemia) [pM] | GI50 (UACC-257 melanoma) [µM] | GI50 (UO-31 renal) [nM] | GI50 (SNB-19 CNS) [nM] | GI50 (NCI-H23 lung) [nM] | GI50 (HOP-92 NSCLC) [µM] | GI50 (SW-620 colon) [nM]
COc1ccc2cc(/C=N/NC(=O)Nc3ccccc3)ccc2c1 | > 100 | > 100 | > 100 | > 100 | > 100 | > 100 | > 100 | > 100 | – | – | – | – | – | – | – | – | – | – | – | –
CC(OC(C)(C)C)[C@H](NC(=O)OCC(Cl)(Cl)Cl)C(=O)O (some centres undefined) | > 100 | > 100 | > 100 | > 100 | > 100 | > 100 | > 100 | > 100 | > 100 | > 100 | – | – | – | – | – | – | – | – | – | –
O=c1cnn(C/C=C/CO)c(=O)[nH]1 | > 100 | – | > 100 | > 100 | > 100 | > 100 | > 100 | > 100 | > 100 | – | – | – | – | – | – | – | – | – | – | –
Cc1[nH]nc(C(F)(F)F)c1N=NN1CCOCC1 | 27.1 | 5.32 | 24.4 | 7.04 | 30.4 | 15.5 | 8.32 | 5.64 | 24.7 | 28.6 | – | – | – | – | – | – | – | – | – | –
O=C(O)CCC(NC(=O)c1ccc(Nc2nc3cc(C(F)(F)F)ccc3nc2-c2ccccc2)cc1)C(=O)O (centres undefined) | > 100 | > 100 | > 100 | > 100 | > 100 | > 100 | > 100 | > 100 | > 100 | > 100 | – | – | – | – | – | – | – | – | – | –
CC1(CCOCc2ccccc2)NC(=O)NC1=O (centres undefined) | > 100 | > 100 | > 100 | > 100 | > 100 | > 100 | > 100 | > 100 | > 100 | – | – | – | – | – | – | – | – | – | – | –
CCC(/C=C/C1OC(=O)C=CC1C)=C\C(C)C/C=C/C(C)=C/C(C)C(=O)C(C)C(O)C(C)C/C(C)=C/C(=O)O (centres undefined) | – | – | 6.25 | – | 13.2 | 3.87 | – | 6.29 | 3.96 | – | 0.0281 | 0.0164 | 0.00202 | 2.33 | 0.000294 | 0.0312 | 0.0253 | 0.00652 | 5.32 | 0.00244
C=C(C)[C@@H]1CC[C@]2(C(=O)NC3CCCCC3)CC[C@]3(C)[C@H](CC[C@@H]4[C@@]5(C)CCCNC(C)(C)[C@@H]5CC[C@]43C)[C@@H]12 | 3.72 | – | 3.31 | 2.73 | 33.3 | – | 3.15 | 3.15 | – | 3.11 | 1910 | – | 1690 | – | 1.72 | 1420 | 5510 | – | 1.55 | 1670
c1ccc(CCNc2ccccn2)nc1 | > 100 | – | > 100 | > 100 | > 100 | > 100 | > 100 | > 100 | > 100 | – | – | – | – | – | – | – | – | – | – | –
CC1(C)N=C(N)N=C(N)N1c1ccc(CCc2ccccc2)cc1 | > 100 | > 100 | 32 | > 100 | > 41.1 | > 100 | 79.7 | > 100 | > 100 | 82.8 | – | – | – | – | – | – | – | – | – | –
O=C(Cn1c[n+](CC(=O)c2ccc(-c3ccccc3)cc2)c2ccccc21)Nc1cccc2cccnc12 | – | – | 2.78 | 33.3 | – | 3.02 | 2.18 | 3.05 | 13 | 3.06 | – | 3020 | 1620 | – | 1.28 | 14200 | – | 1520 | 0.677 | 1620
NCc1ccccc1-c1c2nc(c(-c3ccccc3CN)c3ccc([nH]3)c(-c3ccccc3CN)c3nc(c(-c4ccccc4CN)c4ccc1[nH]4)C=C3)C=C2 | 73.9 | – | 47.7 | 42.6 | 43.5 | 58.4 | 22.2 | > 100 | 46.9 | – | – | – | – | – | – | – | – | – | – | –
